Measurements reported in paper PMC5874719, “A π-Halogen Bond of Dibenzofuranones with the Gatekeeper Phe113 in Human Protein Kinase CK2 Leads to Potent Tight Binding Inhibitors” (Pharmaceuticals, 2018).

Columns and labels:
Type in all cases: cell-based, human
[1] = test system: cellular CK2 in ARPE19 cells; assay: cellular CK2 activity after treatment of cells (in vitro phosphorylation assay of cell extracts); details: for cellular CK2 activity reduced to: control = 100%
Protocol: (§1) Figure 4 Expression of CK2 in prostate cancer cell line LNCaP and non-neoplastic retinal pigment epithelial cell line ARPE19 and inhibition of intracellular activity by dibenzofurans. (A) Cells were extracted with RIPA buffer. 50 μg cell extract was separated on a 12.5% SDS polyacrylamide gel and transferred to a PVDF membrane followed by Western blotting with anti-CK2α (1A5), anti-CK2α’ (#30), anti-CK2α (6D5) and anti-GAPDH antibodies. GAPDH was used as a loading control. (B) ARPE19 or LNCaP cells were treated with DMSO as control (0 μM) or with 25 or 50 μM 4b, 4a or 5 for 24 or 48 h. Kinase activity of CK2 in the cell extracts was measured with the synthetic CK2 specific peptide substrate, […], in the presence of [[^32P]γATP. Results from at least three individual experiments are shown; the activity in the control cells was set to 100%.
(§2) ARPE19 and LNCaP cells were treated with 0, 25 or 50 µM of the different dibenzofuran derivatives 4b, 4a and 5 for 24 and 48 h before being harvested. Proteins were extracted and CK2 kinase activity was measured by an in vitro phosphorylation assay using the CK2 specific peptide substrate […] and radiolabeled [[^32P]γATP. The activity as measured was normalized to equal protein amounts. The relative CK2 activity of at least three independent experiments is given as bar graphs in Figure 4B. In ARPE19 cells CK2 activity was strongly repressed by all inhibitors. […] For 5 a weaker but dose-dependant effect was observed. 25 µM reduced the cellular CK2 activity to 80% and with 50 µM the activity was reduced to 40%. In LNCaP cells the results were essentially similar to those made in ARPE19 cells. However, the repression of activity by 4b and 4a was not as strong as in ARPE19 cells. 4b reduced the activity to 50%, 4a to 40%. The outcome using 5 was quite similar to the effects observed in ARPE19 cells: a reduction to roughly 80% when using 25 µM, which was enhanced to 40% when using 50 µM. This also indicated cell penetration of compounds 4a, 4b, and 5. A more direct evidence for intracellular inhibition of CK2 could be obtained by measuring the phosphorylation of endogenous natural substrates (biomarker analysis). […] With respect to their results and taking into consideration that the logP values of compounds 4a, 4b, and 5 as given in Table 2 are not of substantial difference, we conclude that the inhibitors were able to cross the cell membrane and exerted a similar inhibitory effect on intracellular CK2 activity in both cell lines.
(§3) ARPE19 cells (ATCC Number: CRL-2302), retinal pigment epithelia (RPE) cells, were maintained at 37 °C and 5% CO2 in Dulbecco’s modified Eagles medium (DMEM) supplemented with 2 mM L-glutamine, 1 mM gentamicin and 10% fetal calf serum (FCS) at 37 °C in an atmosphere enriched with 5% CO2. The hormone-sensitive prostate cancer cell line LNCaP (ATCC: CRL-1740, passage number 30–40) was cultured in RPMI1640 (Sigma-Aldrich Chemie GmbH, Munich, Germany) supplemented with 10% fetal bovine serum and 2 mM L-glutamine at 37 °C in an atmosphere enriched with 5% CO2. 4b, 4a and 5 were dissolved in DMSO as a 10 mM stock solution and cells were treated in the concentrations and times as indicated. Pure DMSO was applied as control. For the evaluation of cell morphology ARPE19 and LNCaP cells were analysed with bright field microscopy using a Axiovert microscope from Zeiss (Jena, Germany).
(§4) For harvesting cells—including floating cells—were scraped off the plate with a rubber policeman and sedimented by centrifugation (7 min, 4 °C, 400× g). Cells were washed with cold phosphate buffered saline (PBS) and the cell pellet was lysed with the double volume of RIPA buffer (50 mM Tris/HCl, pH 8.0, 150 mM NaCl, 0.5% sodium desoxycholate, 1% Triton X-100, 0.1% sodium dodecylsulfate) supplemented with the protease inhibitor cocktail completeTM (Roche Diagnostics GmbH, Mannheim, Germany). […]

[2] = test system: cellular CK2 in LNCaP cells; assay: as above; details: control = 100%
Protocol: as §1, §2, §3, §4

PARP1 in LNCaP cells = assay: PARP1 cleavage, Western blot
Protocol: Figure 6 Induction of apoptosis in prostate cancer cell line LNCaP and non-neoplastic retinal pigment epithelial cell line ARPE19. (A) ARPE19 or LNCaP cells were treated with DMSO as control (0 μM) or with 25 or 50 μM 4b, 4a or 5 for 24 or 48 h. Activity of caspases 3 and 7 was determined using the luminescent Caspase-Glo® 3/7 assay according to the technical bulletin of the manufacturer. Median relative light units (RLU) + standard deviation from at least three independent experiments are shown in the bar graph. (B) Cells were treated as described before. 75 μg cell extract was separated in a 10% SDS polyacrylamide gel and analyzed in a Western blot analysis with a rabbit polyclonal antibody against PARP1. + is a positive control for PARP cleavage.
In addition to the luminescence assay, Western blot analysis was performed to check PARP1-cleavage (Figure 6B). Therefore specific antibodies for the detection of the full-length PARP1 (113 kDa) and the larger cleavage fragment of PARP1 (89 kDa) were used. In ARPE19 cells no cleavage product of PARP1 was detectable.
Proteins were separated by SDS polyacrylamide gel electrophoresis and blotted onto a PVDF membrane. After blocking (1 h with PBS-Tween20 with 5% dry milk) the membrane was incubated with appropriate dilutions of primary antibodies in PBS-Tween20 with 1% dry milk for another hour at room temperature or at 4 °C overnight. Then the membrane was washed twice for 10 min with PBS-Tween20 with 1% dry milk. Incubation with the peroxidase-coupled secondary antibody (anti-rabbit 1:30,000, anti-mouse 1:10,000) followed for 1 h. The membrane was washed again twice for 10 min with PBS-Tween20. Signals were developed and visualized by the Lumilight system of Roche Diagnostics GmbH. For the detection of the apoptose marker protein PARP we used a polyclonal PARP antibody (Cell Signaling Technology, Frankfurt, Germany), a GAPDH specific antibody (Santa Cruz Biotechnologies, Dallas, TX, USA) was used for loading control. […]

[3] = 25 or 50 µM, 24 or 48 h (not specified)

Row | SMILES | inhibition of cellular CK2 activity ([1]; ARPE19, 25 µM for 24 h) [%] | cellular CK2 activity reduced to [2, 3] [%] | PARP1 cleavage (PARP1 in LNCaP cells; 25 or 50 µM, 24 or 48 h) | inhibition of cellular CK2 activity ([1]; ARPE19, 25 or 50 µM, 24 or 48 h, independent of concentration and time) [%] | PARP1 cleavage (PARP1 in LNCaP cells; 50 µM) | cellular CK2 activity reduced to ([1]; ARPE19, 25 µM) [%] | cellular CK2 activity reduced to ([1]; ARPE19, 50 µM) [%] | cellular CK2 activity reduced to ([2]; 25 µM) | cellular CK2 activity reduced to ([2]; 50 µM) [%]
1 | COc1ccc(N/C=C2\C(=O)CCc3c2oc2cc(Cl)c(O)c(Cl)c32)cc1 [4a, 7,9-dichloro-1,2-dihydro-8-hydroxy-4-[(4-methoxyphenylamino)methylene]dibenzo[b,d]furan-3(2H)-one] | 80 | 40 | did not result in cleavage of PARP1 | – | – | – | – | – | –
2 | Cc1ccc(NC=C2C(=O)CCc3c2oc2c(Cl)c(Cl)c(O)cc32)cc1 [4b, 6,7-dichloro-1,4-dihydro-8-hydroxy-4-[(4-methylphenylamino)methylene]dibenzo[b,d]furan-3(2H)-one] | – | 50 | – | 60 | cleavage of PARP1 | – | – | – | –
3 | COc1ccc(/N=C/c2c(O)ccc3c2oc2cc(Cl)c(O)c(Cl)c23)cc1 [compound 5, (E)-1,3-dichloro-6-[(4-methoxyphenylimino)methyl]dibenzo[b,d]furan-2,7-diol] | – | – | – | – | cleavage of PARP1 | 80 | 40 | roughly 80% | 40
